System: U87MG human glioblastoma cells
Assay: Determination of In Vivo Efficacy: U87MG human glioblastoma xenograft tumor volume;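 note: subcutaneous flank xenografts in female athymic nude mice, tumor volume measured twice weekly, log volumes compared with the combined-vehicle control group by repeated measures ANOVA at each time point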
Conditions: for Tumor volume Mean / Signif. (difference in tumor volume relative to the vehicle group): 3 mg/kg of each agent orally once daily; for Tumor volume Mean: U87MG xenograft in nude mice
Description: The vehicle group is given the 2 vehicles (NaCMC Tween 80 and 35% PEG300/10% HPBCD/10% PS80 in H2O) in combination (0.1 mL of each). Treatment is continued for 23 days. Tumor volumes are measured using standard technique twice weekly and reported. Tumor size and body weight are recorded and analyzed bi-weekly. Tumor volume is estimated by using the formula: v=l×w^2×0.536 where l=larger of measured diameter and w=smaller of perpendicular diameter. The analysis uses SAS software version 8.2 (SAS Institutes Inc, Cary, N.C.) to analyze the log tumor volume data using a repeated measures ANOVA model with a spatial power covariance structure. For each time point taken, treatment groups are compared to the vehicle control group. Tumor volumes are given as means±standard errors for each treatment group determined from a repeated measures ANOVA on each group.
The data in the column headed Signif. indicates whether the difference relative to the vehicle group is statistically significant: NS=Not Significant (p>0.05); *=0.01<p≦0.05; **=0.001<<p≦0.01; ***=p≦0.001.

CO[C@H]1CC2CC[C@@H](C)[C@@](O)(O2)C(=O)C(=O)N2CCCC[C@H]2C(=O)O[C@H]([C@H](C)C[C@@H]2CC[C@@H](O)[C@H](OC)C2)CC(=O)[C@H](C)/C=C(\C)[C@@H](O)[C@@H](OC)C(=O)[C@H](C)C[C@H](C)/C=C/C=C/C=C/1C [Rapamycin, rapamycin, reference compound]
Tumor volume Mean (Day 7): 43.1 | Tumor volume Mean (Day 10): 65.6 | Tumor volume Mean (Day 13): 121.9 | Tumor volume Mean (Day 16): 220.4 | Tumor volume Mean (Day 20): 311.5 | Tumor volume Mean (Day 23): 606.0 | Tumor volume Mean (Day 27): 879.7 | Tumor volume Mean (Day 30): 1160.8 | Tumor volume Mean (Day 34): 1429.5 | Statistical difference from the vehicle group (in words) (whole study (throughout), 3 mg/kg orally once daily): not significantly different

Cn1cc(-c2ccc(F)c(C(F)(F)F)c2)nc1C1CCN(c2ncnc3[nH]ncc23)CC1 [p70 S6 Kinase Inhibitor]
Signif. (difference in tumor volume relative to the vehicle group) (Day 7): NS (NS=Not Significant (p>0.05)) | Tumor volume Mean (Day 7): 43.8 | Signif. (difference in tumor volume relative to the vehicle group) (Day 10): NS (NS=Not Significant (p>0.05)) | Tumor volume Mean (Day 10): 79.6 | Signif. (difference in tumor volume relative to the vehicle group) (Day 13): NS (NS=Not Significant (p>0.05)) | Tumor volume Mean (Day 13): 118.7 | Signif. (difference in tumor volume relative to the vehicle group) (Day 16): * (*=0.01<p≦0.05) | Tumor volume Mean (Day 16): 159.0 | Signif. (difference in tumor volume relative to the vehicle group) (Day 20): * (*=0.01<p≦0.05) | Tumor volume Mean (Day 20): 233.6 | Signif. (difference in tumor volume relative to the vehicle group) (Day 23): NS (NS=Not Significant (p>0.05)) | Tumor volume Mean (Day 23): 539.1 | Signif. (difference in tumor volume relative to the vehicle group) (Day 27): NS (NS=Not Significant (p>0.05)) | Tumor volume Mean (Day 27): 928.6 | Signif. (difference in tumor volume relative to the vehicle group) (Day 30): NS (NS=Not Significant (p>0.05)) | Tumor volume Mean (Day 30): 1158.5 | Signif. (difference in tumor volume relative to the vehicle group) (Day 34): NS (NS=Not Significant (p>0.05)) | Tumor volume Mean (Day 34): 1256.6

— patent US20110212977A1, “P70 S6 KINASE INHIBITOR AND MTOR INHIBITOR COMBINATION THERAPY” (ELI LILLY AND COMPANY, priority 2008, published 2011)
